Each structure is given as a SMILES string.

The target of one assay is T1, ER-α (Homo sapiens, UniProt P03372).
T1 sequence (P03372 1-595): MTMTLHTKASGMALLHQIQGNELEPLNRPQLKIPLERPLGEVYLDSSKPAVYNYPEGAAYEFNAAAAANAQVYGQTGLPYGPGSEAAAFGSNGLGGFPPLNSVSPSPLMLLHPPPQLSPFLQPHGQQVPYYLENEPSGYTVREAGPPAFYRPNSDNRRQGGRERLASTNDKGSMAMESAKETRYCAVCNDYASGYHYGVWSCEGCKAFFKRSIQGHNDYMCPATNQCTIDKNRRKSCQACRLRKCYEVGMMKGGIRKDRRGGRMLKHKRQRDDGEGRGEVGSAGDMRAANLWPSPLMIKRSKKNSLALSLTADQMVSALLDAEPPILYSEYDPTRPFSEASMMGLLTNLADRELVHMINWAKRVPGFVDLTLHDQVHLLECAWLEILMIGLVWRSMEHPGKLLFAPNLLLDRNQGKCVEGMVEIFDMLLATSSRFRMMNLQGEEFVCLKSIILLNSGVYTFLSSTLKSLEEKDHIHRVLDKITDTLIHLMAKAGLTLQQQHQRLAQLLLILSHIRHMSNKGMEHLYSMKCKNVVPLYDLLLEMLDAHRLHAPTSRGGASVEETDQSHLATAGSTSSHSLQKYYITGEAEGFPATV
As to the kind of experiment: Breast Cancer Cell ER-α In Cell Western Assay (SP1). It counts as cell-based. The note with it: MCF-7 cells, SP1 antibody, 4 or 24 hr post compound addition; for Emax: MCF7, read-out: ER-α In Cell Western Assay (SP1) Max Response; for DC50: read-out: ER-α In Cell Western Assay (SP1) IC50. The gist of the method:
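ER-α protein levels measured by in-cell western with SP1 antibody, ratioed to DRAQ5 DNA signal and given as percent of untreated controls. Compounds added at 0.3–0.000003 μM final (eleven semilog points) to adherent MCF-7 cells in stripped serum; exposure 4 or 24 h before fixation.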

A further assay has as its system MCF-7 cells. Description: Breast Cancer Cell Viability Assay (MCF-7, CellTiter-Glo). Particulars: 5 days' compound exposure; for IC50: Homo sapiens, MCF7, 120 h. It counts as cell-based. The gist of the method: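 MCF-7 cells, 320 per well in RPMI with 10% FBS and 20 mM HEPES, adhered overnight, then exposed 5 days to an eleven-point semilog dilution (final 0.3-0.000003 μM). CellTiter-Glo luminescence read; % viability = (sample − cell-free background)/(untreated − background) × 100.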
Background: In ATP-based viability assays light output follows the ATP content of the culture.

Take `CC/C(=C(/c1ccc(/C=C/C(=O)O)cc1)c1ccc2[nH]ncc2c1)c1cccc(OC)c1Cl` [Compound 135, (E)-3-(4-((E)-2-(2-Chloro-3-methoxyphenyl)-1-(1H-indazol-5-yl)but-1-en-1-yl)phenyl)acrylic acid]: on ER-α, the Emax is ≥ 40% and the DC50 was ≤ 100 nM. Besides, in the assay with MCF-7 cells, the “MCF7 Viability Assay Max Response” value is “++ (++ = a single % value ≧ 40%)” and the IC50 was ≤ 100 nM.

With `CC/C(=C(/c1ccc(/C=C/C(=O)O)cc1)c1ccc2[nH]ncc2c1)c1ccc(Cl)cc1C#N` [Compound 137, (E)-3-(4-((E)-2-(4-Chloro-2-cyanophenyl)-1-(1H-indazol-5-yl)but-1-en-1-yl)phenyl)acrylic acid], on ER-α, the Emax is ≥ 40% and the DC50 was ≤ 100 nM. In addition, in the assay on MCF-7 cells, the “MCF7 Viability Assay Max Response” value is recorded as “++ (++ = a single % value ≧ 40%)” and the concentration for half-maximal inhibition (IC50) was ≤ 100 nM.

As to `CC/C(=C(/c1ccc(/C=C/C(=O)O)cc1)c1ccc2[nH]ncc2c1)c1ccc(F)cc1C#N` [Compound 138, (E)-3-(4-((E)-2-(2-Cyano-4-fluorophenyl)-1-(1H-indazol-5-yl)but-1-en-1-yl)phenyl)acrylic acid], on ER-α, the Emax is ≥ 40% and the DC50 is ≤ 100 nM. In the assay with MCF-7 cells, the “MCF7 Viability Assay Max Response” value was “++ (++ = a single % value ≧ 40%)” and the IC50 was ≤ 100 nM.

As for `CC/C(=C(/c1ccc(/C=C/C(=O)O)cc1)c1ccc2[nH]ncc2c1)c1ccc(C(F)(F)F)cc1C#N` [Compound 139, (E)-3-(4-((E)-2-(2-Cyano-4-(trifluoromethyl)phenyl)-1-(1H-indazol-5-yl)but-1-en-1-yl)phenyl)acrylic acid], at ER-α, the Emax is ≥ 40% and the DC50 is ≤ 100 nM. Also, in the assay with MCF-7 cells, the “MCF7 Viability Assay Max Response” value is reported as “++ (++ = a single % value ≧ 40%)” and the concentration for half-maximal inhibition (IC50) was ≤ 100 nM.

Consider `CC/C(=C(/c1ccc(/C=C/C(=O)O)cc1)c1ccc2[nH]ncc2c1)c1ccc(C#N)cc1Cl` [Compound 140, (E)-3-(4-((E)-2-(2-Chloro-4-cyanophenyl)-1-(1H-indazol-5-yl)but-1-en-1-yl)phenyl)acrylic acid], for which, at ER-α, the Emax is ≥ 40%. In the assay with MCF-7 cells, the “MCF7 Viability Assay Max Response” value is recorded as “++ (++ = a single % value ≧ 40%)” and the IC50 was ≤ 100 nM.

On to `CC/C(=C(/c1ccc(/C=C/C(=O)O)cc1)c1ccc2[nH]ncc2c1)c1cccc(C#N)c1C` [Compound 141, (E)-3-(4-((E)-2-(3-Cyano-2-methylphenyl)-1-(1H-indazol-5-yl)but-1-en-1-yl)phenyl)acrylic acid], for which, at ER-α, the Emax was ≥ 40% and the DC50 was ≤ 100 nM. In the assay with MCF-7 cells, the “MCF7 Viability Assay Max Response” value was “++ (++ = a single % value ≧ 40%)” and the IC50 is > 100 nM.

Turning to `CC/C(=C(/c1ccc(/C=C/C(=O)O)cc1)c1ccc2[nH]ncc2c1)c1ccc(C#N)cc1C` [Compound 142, (E)-3-(4-((E)-2-(4-Cyano-2-methylphenyl)-1-(1H-indazol-5-yl)but-1-en-1-yl)phenyl)acrylic acid], the Emax on ER-α is ≥ 40%. In the assay on MCF-7 cells, the “MCF7 Viability Assay Max Response” value is given as “++ (++ = a single % value ≧ 40%)” and the IC50 was ≤ 100 nM.

For `CC/C(=C(/c1ccc(/C=C/C(=O)O)cc1)c1ccc2[nH]ncc2c1)c1cc(C#N)ccc1C` [Compound 143, (E)-3-(4-((E)-2-(5-Cyano-2-methylphenyl)-1-(1H-indazol-5-yl)but-1-en-1-yl)phenyl)acrylic acid], at ER-α, the Emax was ≥ 40% and the DC50 was ≤ 100 nM. In the assay with MCF-7 cells, the “MCF7 Viability Assay Max Response” value was “++ (++ = a single % value ≧ 40%)” and the half-inhibitory concentration (IC50) is > 100 nM.

As to `CC/C(=C(/c1ccc(/C=C/C(=O)O)cc1)c1ccc2[nH]ncc2c1)c1ccc(OC)cc1C#N` [Compound 144, (E)-3-(4-((E)-2-(2-Cyano-4-methoxyphenyl)-1-(1H-indazol-5-yl)but-1-en-1-yl)phenyl)acrylic acid], on ER-α, the Emax is ≥ 40% and the DC50 was ≤ 100 nM. Further, in the assay on MCF-7 cells, the “MCF7 Viability Assay Max Response” value is “++ (++ = a single % value ≧ 40%)” and the concentration for half-maximal inhibition (IC50) was ≤ 100 nM.

By IC50 is commonly meant the midpoint of a concentration-inhibition curve. A low value points to greater potency in that assay.

Source of the values: patent US8455534B2, “Estrogen receptor modulators and uses thereof” (Aragon Pharmaceuticals, Inc., priority 2010, dated 2013).
